Test results: patent US7323044B1, “Biocidal compositions” (Troy Corporation, priority 2007, dated 2008)

What was measured:
[1] = Amount of castor oil based co-solvent required to keep OBPA in solution with plasticizer; type: physicochemical; conditions: with commercial plasticizers (e.g., diisodecyl phthalate); about −13° C. to about 30° C.
Protocol: As a general rule, OBPA solutions which are transported or stored at outdoor conditions, without the benefit of dedicated heating or cooling equipment, may be exposed to temperatures in the range of about −13° C. to about 30° C. […] For OBPA solutions which will be transported or stored at outdoor conditions, we prefer that the weight ratio of OBPA to the solvent is about 0.12 or less in the present invention, more preferably in the range of about 0.083 to about 0.12, and most preferably about 0.10. For OBPA solutions which will be temperature-controlled during shipment and storage, the invention can be successfully practiced over a broader range of OBPA to solvent weight ratio.

[2] = background statement; cited from earlier work

c1ccc2c(c1)Oc1ccccc1[As]2O[As]1c2ccccc2Oc2ccccc21 [OBPA, 10,10′-oxybisphenoxarsine]
Castor oil based co-solvent required to keep 1 gram of OBPA in solution [1]: at least 8 grams
Solubility of OBPA in plasticizers currently favored for manufacturing flexible PVC [2]: less than 1 wt %
